{"source": "patent EP4600260A1", "about": "“KERATIN YK93-4, AND PREPARATION METHOD THEREFOR, PHARMACEUTICAL COMPOSITION THEREOF AND USE THEREOF” (INSTITUTE OF MATERIA MEDICA, CHINESE ACADEMY OF MEDICAL …, priority 2022, dated 2024)", "system": "EL-4 lymphoma", "details": "cyclophosphamide 100 mg/kg, intraperitoneal, single; routine blood analysis, P<0.05", "experimental": "Preparation of experimental animals: The experimental animals were adapted to the experimental environment (temperature 22°C±2°C, relative humidity 50%±2%) for 1 day.\nSubcutaneous inoculation of EL-4 cell suspension to replicate a mouse lymphoma model: The EL-4 tumor tissue was ground into a suspension using a glass homogenizer, the tumor suspension was aspirated with a syringe, the number of live cells was calculated, the cell concentration was adjusted to 2.0*10^6/ml with physiological saline, and then the suspension was injected into the left armpit of mice with 0.2 ml/mouse. […] On the day of treatment, weight was measured, 20µl of blood was obtained from the orbital blood and the routine blood analysis was performed. The tumor blocks were stripped, weighed and photographed, and the tumor suppression rate was calculated.\nThe tumor suppression rate [(The average weight of the tumor in the normal control group - the average weight of the tumor in the experimental group) / The average weight of the tumor in the normal control group × 100 %] and average value, standard deviation and standard errors of tumor weight were calculated. The data from the groups were compared with each other by T.TEST, and P<0.05 was considered as a significant difference."}
{"smiles": "O=P1(N(CCCl)CCCl)NCCCO1", "note": "(stereo not shown) [cyclophosphamide, Cyclophosphamide]", "values": [{"measurement": "number of leukocytes, lymphocytes, monocytes, and neutrophils", "result": "significantly reduced"}]}
